# Test results taken from patent US20260068882A1, “ARTHROPOD CONTROLLING COMPOSITION” (Firmenich SA, priority 2019, published 2026).
# Like-named read-outs stand apart in the source and are kept apart here.
# Experiments:
# Aedes aegypti = assay: In vitro Warm Body assay, mosquitoes landing on treated warm body; assay type: in vivo; conditions: for % of mosquitoes' repellency: normalised to landing with 100% ethanol
# Method: (§1) The arthropod controlling effect according to the present invention is determined on mosquitoes using an adapted Warm Body assay as defined in Kröber T, Kessler S, Frei J, Bourquin M, Guerin P M. An in vitro assay for testing mosquito controlling compounds employing a warm body and carbon dioxide as a behavioral activator. J Am Mosq Control Assoc. 2010; 26:381-386.
# (§2) The controlling effect according to the present invention is determined by testing the Warm Body assay against the yellow fever mosquito, Aedes aegypti Rockefeller strain. […] Observations of controlling efficacy were made on host-seeking females of uniform age, 5 to 10 days old selected as mentioned in the publication mentioned hereinabove. Tested hungry females had access to 10% sugar solution but were not blood-fed.
# (§3) The published protocol has been adapted in not manually counting the landing mosquitoes but automatically using an automatic counting software, the switch from Anopheles gambiae to A. aegypti led to a decrease of mosquitoes' number placed in the tested cage due to the size difference (i.e. 30 mosquitoes instead of 50) and to an increase of lighting as A. aegypti is a diurnal mosquitoes (i.e. 150 lux instead of 4 lux).
# as §2, with “A.” for “Aedes”
# as §1, with “The” for “The arthropod”, “was assessed” for “is determined on mosquitoes”
# as §3, with “Aedes” for “A.”
# In this in-vitro assay the number of A. aegypti landing on a warm body treated with the tested stimuli was measured in order to assess the repellency effect. Three replicates were carried on the three different doses: 0.0016%, 0.04% and 1% in ethanol, using 25 A. aegypti 10-12 days old females per cage.
# In this in-vitro assay, the number of Aedes aegypti landing on a warm body treated with the tested stimuli was measured in order to assess the repellency effect. Three replicates were carried on the three different doses: 0.0016%, 0.04% and 1% in ethanol.
# In this in-vitro assay, the number of Aedes aegypti landing on a warm body treated with the tested stimuli was measured in order to assess the repellency effect. One replicate was carried at different doses ranging from 0.0016% up to 1% in ethanol.
# Ixodes ricinus = assay: In vitro Warm Plate Assay for ticks; assay type: in vivo; conditions: for pest or weed control at 0.04 % / pest or weed control at 0.2 % / pest or weed control at 1 % / pest or weed control at 0.0016 %: Ixodes ricinus, read-out: percentage of ticks affected on the Warm Plate; for pest or weed control at 0.2 %: 0.2% (Table 10); for pest or weed control at 0.0016 %: 0.0016% (Table 11)
# Method: Repellent efficacy of the different compounds was assessed against the sheep tick, Ixodes ricinus. I. ricinus is one of the recommended model organisms mentioned by the Guidance on the European Biological Products Regulation [Vol II, Efficacy-Assessment & Evaluation (Parts B+C), v. 3.0, April 2018]. Observations of repellent efficacy were made on last stage nymphs.
# The repellent efficacy was assessed using the protocol of the in-vitro Warm Plate Assay as defined in Kröber T, Bourquin M, Guerin P M. A standardized in vivo and in vitro test method for evaluating tick repellents. Pesticide Biochemistry and Physiology. 2013; 107 (2): 160-168.].
# The mean±SD number of ticks Ixodes ricinus walking down (affected), falling (affected) or walking-up (non affected) from the warm plate treated with ethanol, N,N-diethyl-3-methylbenzamide, (2,5-dimethyl-2,3-dihydro-1H-inden-2yl)methanol (Ingredient 2) or (2,4,6-trimethyl-2,3-dihydro-1H-inden-2-yl)methanol (Ingredient 1) diluted in ethanol at 0.4 mg/ml and 10 mg/mL was assessed on n groups of 12 ticks (n=2-5).
# In this in-vitro assay, the percentage of ticks Ixodes ricinus affected by the stimulus loaded on the warm plate was measured in order to assess the repellency effect. Twelve ticks were assessed per concentrations that goes from 0.0016% up to 1% in ethanol.
# Using the same in-vitro setup, the effect on ticks behavior (n≥12) of different stimuli diluted in ethanol at 20% (w/w) was assessed overtime.
# [1] = Aedes aegypti, read-out: decrease of landings
compound,measurement,setting,value
"CC(=O)C1(C)Cc2ccc(C)cc2C1 (racemic) [(+−)-1-(2,5-dimethyl-2,3-dihydro-1H-inden-2-yl)ethanone]",number of mosquitoes landed on the Warm Body,Aedes aegypti; 0.0016% in ethanol (Table 6),119
same,number of mosquitoes landed on the Warm Body,Aedes aegypti; 0.04% in ethanol (Table 6),15
same,number of mosquitoes landed on the Warm Body,Aedes aegypti; 1% in ethanol (Table 6),6
same,pest or weed control at 0.04 %,Ixodes ricinus; 0.04% (Table 10),0%
same,pest or weed control at 0.2 %,Ixodes ricinus,42%
same,pest or weed control at 1 %,Ixodes ricinus; 1% (Table 10),100%
"CC1(CO)Cc2ccccc2C1 [(2-methyl-1,3-dihydroinden-2-yl)methanol]",number of mosquitoes landed on the Warm Body,Aedes aegypti; 0.0016% in ethanol (Table 6),65
same,number of mosquitoes landed on the Warm Body,Aedes aegypti; 0.04% in ethanol (Table 6),16
same,number of mosquitoes landed on the Warm Body,Aedes aegypti; 1% in ethanol (Table 6),1
same,pest or weed control at 0.0016 %,Ixodes ricinus,0%
same,pest or weed control at 0.04 %,Ixodes ricinus; 0.04% (Table 11),14%
same,pest or weed control at 1 %,Ixodes ricinus; 1% (Table 11),92%
"CC(=O)C1(C)Cc2ccc(C)c(C)c2C1 (racemic) [(+−)-1-(2,4,5-trimethyl-2,3-dihydro-1H-inden-2-yl)ethanone]",number of mosquitoes landed on the Warm Body,Aedes aegypti; 0.0016% in ethanol (Table 6),31
same,number of mosquitoes landed on the Warm Body,Aedes aegypti; 0.04% in ethanol (Table 6),5
same,number of mosquitoes landed on the Warm Body,Aedes aegypti; 1% in ethanol (Table 6),18
same,pest or weed control at 0.04 %,Ixodes ricinus; 0.04% (Table 10),0%
same,pest or weed control at 0.2 %,Ixodes ricinus,38%
same,pest or weed control at 1 %,Ixodes ricinus; 1% (Table 10),92%
"Cc1ccc2c(c1)CC(CO)C2 (racemic) [(+−)-(5-methyl-2,3-dihydro-1H-inden-2-yl)methanol]",number of mosquitoes landed on the Warm Body,Aedes aegypti; 0.0016% in ethanol (Table 6),65
same,number of mosquitoes landed on the Warm Body,Aedes aegypti; 0.04% in ethanol (Table 6),7
same,number of mosquitoes landed on the Warm Body,Aedes aegypti; 1% in ethanol (Table 6),5
same,pest or weed control at 0.04 %,Ixodes ricinus; 0.04% (Table 10),0%
same,pest or weed control at 0.2 %,Ixodes ricinus,100%
same,pest or weed control at 1 %,Ixodes ricinus; 1% (Table 10),100%
same,concentration at which the level of 85% of ticks affected is reached,Ixodes ricinus; Tables 10 and 12,0.2%
"COCC1(C)Cc2ccc(C)cc2C1 (stereo not drawn) [(2,5-dimethyl-2,3-dihydro-1H-inden-2-yl)methyl methyl ether]",decrease of the number of landing,Aedes aegypti; 1% in ethanol (FIG. 9),86%
same,pest or weed control at 0.0016 %,Aedes aegypti; [1],4 to 29%
same,pest or weed control at 0.0016 %,Ixodes ricinus,0%
same,pest or weed control at 0.04 %,Ixodes ricinus; 0.04% (Table 11),17%
same,pest or weed control at 1 %,Ixodes ricinus; 1% (Table 11),79%
"CCN(CC)C(=O)c1cccc(C)c1 [DEET, N,N-diethyl-3-methylbenzamide, reference compound]",% of mosquitoes' repellency,Aedes aegypti; 0.00032% concentration,17%
same,% of mosquitoes' repellency,Aedes aegypti; 0.00071% concentration,10%
same,% of mosquitoes' repellency,Aedes aegypti; 0.0016% concentration,5%
same,mean ± SD numbers of mosquitoes landed on the Warm Body,Aedes aegypti; 0.0016% dilution (Table 4),53.3 ± 12.5
same,% of mosquitoes' repellency,Aedes aegypti; 0.0036% concentration,19%
same,% of mosquitoes' repellency,Aedes aegypti; 0.0053% concentration,46%
same,% of mosquitoes' repellency,Aedes aegypti; 0.0080% concentration,61%
same,% of mosquitoes' repellency,Aedes aegypti; 0.018% concentration,79%
same,% of mosquitoes' repellency,Aedes aegypti; 0.040% concentration,89%
same,mean ± SD numbers of mosquitoes landed on the Warm Body,Aedes aegypti; 0.04% dilution (Table 4),5.7 ± 1.0
same,% of mosquitoes' repellency,Aedes aegypti; 0.089% concentration,97%
same,% of mosquitoes' repellency,Aedes aegypti; 0.20% concentration,98%
same,% of mosquitoes' repellency,Aedes aegypti; 0.45% concentration,95%
same,% of mosquitoes' repellency,Aedes aegypti; 1% concentration,97%
same,mean ± SD numbers of mosquitoes landed on the Warm Body,Aedes aegypti; 1% dilution (Table 4),0.7 ± 0.3
same,pest or weed control at 0.04 %,"Aedes aegypti; Aedes aegypti, 0.04% in ethanol (FIG. 8), read-out: decrease of landings",92%
same,MEAN % affected (ticks),Ixodes ricinus; 0.4 mg/mL in ethanol (Table 5),50%
same,MEAN % affected (ticks),Ixodes ricinus; 10 mg/mL in ethanol (Table 5),96%
"CC1(C)OC[C@H]2Cc3ccccc3[C@H]2O1 (racemic) [(4aRS,9bSR)-2,2-dimethyl-4,4a,5,9b-tetrahydroindeno[1,2-d][1,3]dioxin]",number of mosquitoes landed on the Warm Body,Aedes aegypti; 0.0016% in ethanol (Table 6),30
same,number of mosquitoes landed on the Warm Body,Aedes aegypti; 0.04% in ethanol (Table 6),1
same,number of mosquitoes landed on the Warm Body,Aedes aegypti; 1% in ethanol (Table 6),0
"Cc1ccc2c(c1)[C@@H]1O[C@H](C)OC[C@]1(C)C2 [(2R,4aS,9bS)-2,4a,8-trimethyl-4,4a,5,9b-tetrahydroindeno[1,2-d][1,3]dioxin]",number of mosquitoes landed on the Warm Body,Aedes aegypti; 0.0016% in ethanol (Table 6),40
same,number of mosquitoes landed on the Warm Body,Aedes aegypti; 0.04% in ethanol (Table 6),8
same,number of mosquitoes landed on the Warm Body,Aedes aegypti; 1% in ethanol (Table 6),10
"Cc1ccc2c(c1)[C@H]1OC(C)(C)OC[C@@]1(C)C2 (racemic) [(4aRS,9bRS)-2,2,4a,8-tetramethyl-4,4a,5,9b-tetrahydroindeno[1,2-d][1,3]dioxine]",number of mosquitoes landed on the Warm Body,Aedes aegypti; 0.0016% in ethanol (Table 6),59
same,number of mosquitoes landed on the Warm Body,Aedes aegypti; 0.04% in ethanol (Table 6),12
same,number of mosquitoes landed on the Warm Body,Aedes aegypti; 1% in ethanol (Table 6),11
"C[C@H]1O[C@@H]2c3ccccc3C[C@@H]2[C@@H](C)O1 (racemic) [(2RS,4RS,4ARS,9BSR)-2,4-dimethyl-4,4a,5,9b-tetrahydroindeno[1,2-d][1,3]dioxine]",number of mosquitoes landed on the Warm Body,Aedes aegypti; 0.0016% in ethanol (Table 6),17
same,number of mosquitoes landed on the Warm Body,Aedes aegypti; 0.04% in ethanol (Table 6),13
"Cc1ccc2c(c1)C[C@]1(C)COCO[C@H]21 (racemic) [(4aRS,9bRS)-4a,7-dimethyl-4,4a,5,9b-tetrahydroindeno[1,2-d][1,3]dioxine]",number of mosquitoes landed on the Warm Body,Aedes aegypti; 0.0016% in ethanol (Table 6),17
"(2RS,4aSR,9bRS)-2,8-dimethyl-4,4a,5,9b-tetrahydroindeno[1,2-d][1,3]dioxine + 2RS,4aRS,9bSR)-2,8-dimethyl-4,4a,5,9b-tetrahydroindeno[1,2-d][1,3]dioxine",number of mosquitoes landed on the Warm Body,Aedes aegypti; 0.0016% in ethanol (Table 6),38
same,number of mosquitoes landed on the Warm Body,Aedes aegypti; 0.04% in ethanol (Table 6),14
same,number of mosquitoes landed on the Warm Body,Aedes aegypti; 1% in ethanol (Table 6),4
"(2RS,4aRS,9bRS)-2,4a,7-trimethyl-4,4a,5,9b-tetrahydroindeno[1,2-d][1,3]dioxine + (2RS,4aSR,9bSR)-2,4a,7-trimethyl-4,4a,5,9b-tetrahydroindeno[1,2-d][1,3]dioxine",number of mosquitoes landed on the Warm Body,Aedes aegypti; 0.0016% in ethanol (Table 6),30
same,number of mosquitoes landed on the Warm Body,Aedes aegypti; 0.04% in ethanol (Table 6),0
same,number of mosquitoes landed on the Warm Body,"Aedes aegypti; 0.04% in ethanol (Table 6), listed as blend of (2RS,4aRS,9bRS)-2,4a,7-trimethyl-4,4a,5,9b-tetrahydroindeno[1,2-d][1,3]",no mosquito landed at all
same,number of mosquitoes landed on the Warm Body,Aedes aegypti; 1% in ethanol (Table 6),0
same,number of mosquitoes landed on the Warm Body,"Aedes aegypti; 1% in ethanol (Table 6), listed as blend of (2RS,4aRS,9bRS)-2,4a,7-trimethyl-4,4a,5,9b-tetrahydroindeno[1,2-d][1,3]",zero
"C[C@@H]1OC[C@]2(C)Cc3ccccc3[C@@H]2O1 (racemic) [(2RS,4aSR,9bSR)-2,4a-dimethyl-4,4a,5,9b-tetrahydroindeno[1,2-d][1,3]dioxin]",number of mosquitoes landed on the Warm Body,Aedes aegypti; 0.0016% in ethanol (Table 6),34
same,number of mosquitoes landed on the Warm Body,Aedes aegypti; 0.04% in ethanol (Table 6),18
same,number of mosquitoes landed on the Warm Body,Aedes aegypti; 1% in ethanol (Table 6),6
"Cc1ccc2c(c1)CC(C)(C(=O)O)C2 (stereo not drawn) [2,5-dimethyl-2,3-dihydro-1H-indene-2-carboxylic acid]",pest or weed control at 0.0016 %,Aedes aegypti; [1],4 to 29%
